pIC50: −log10 of the molar value.
Columns and labels:
human TOR = molecular target: T1, human TOR (Homo sapiens, UniProt P42345); test: mTOR enzyme assay (DELFIA format, purified FLAG-TOR, His6-S6K substrate); type: biochemical; settings: 100 μM ATP, 1.25 μM His6-S6K, 2 hours at room temperature; read-out: TOR Kinase Median IC50
T1 construct: FLAG

PI3 Kinase = test: PI3K fluorescence polarization assay; type: biochemical; settings: 25 μM ATP, diC8-PI(4,5)P2 substrate, 1 hour at 25° C.; read-out: PI3 Kinase Median IC50

Compound | pIC50 (human TOR) | pIC50 (PI3 Kinase) | melting point [°C]
Nc1ccc(-c2nc(N3CCOCC3)c3ncn(C4CCN(Cc5ccccc5)CC4)c3n2)cn1 [Compound 32, 5-[9-(1-benzylpiperidin-4-yl)-6-morpholin-4-yl-9H-purin-2-yl]pyridin-2-amine] | 6.92 | 6.80 | 198 to 200
c1csc(-c2nc(N3CCOCC3)c3nc[nH]c3n2)c1 [Compound 1, 6-morpholin-4-yl-2-(2-thienyl)-9H-purine] | 5.55 | 6.14 | 
CN(C)c1ccc(CN2CCC(n3cnc4c(N5CCOCC5)nc(-c5cccc(O)c5)nc43)CC2)c2ccccc12 [Compound 83, 3-[9-(1-{[4-(dimethylamino)-1-naphthyl]methyl}piperidin-4-yl)-6-morpholin-4-yl-9H-purin-2-yl]phenol] | 6.44 | 7.08 | 
OCc1cccc(-c2nc(N3CCOCC3)c3ncn(C4CCN(Cc5ccc(F)cc5F)CC4)c3n2)c1 [Compound 49, (3-{9-[1-(2,4-difluorobenzyl)piperidin-4-yl]-6-morpholin-4-yl-9H-purin-2-yl}phenyl)methanol] | 5.69 | 7.36 | 
CCNC(=O)Nc1ccc(-c2nc(N3CCOCC3)c3ncn(C4CCN(Cc5cccnc5)CC4)c3n2)cc1 [Compound 90, 1-ethyl-3-(4-(6-morpholino-9-(1-(pyridin-3-ylmethyl)piperidin-4-yl)-9H-purin-2-yl)phenyl)urea] | 7.92 | 5.87 | 
COc1ccc(CN2CCC(n3cnc4c(N5CCOCC5)nc(-c5cccc(CO)c5)nc43)CC2)cn1 [Compound 64, [3-(9-{1-[(6-methoxypyridin-3-yl)methyl]piperidin-4-yl}-6-morpholin-4-yl-9H-purin-2-yl)phenyl]methanol] | < 5.40 | 6.77 | 
CCCCN1CCC(n2cnc3c(N4CCOCC4)nc(-c4cccc(CO)c4)nc32)CC1 [Compound 48] | 5.38 | 7.02 | 
Oc1cccc(-c2nc(N3CCOCC3)c3ncn(CC4CCN(Cc5ccccc5)CC4)c3n2)c1 [Compound 27, 3-(9-((1-benzylpiperidin-4-yl)methyl)-6-morpholino-9H-purin-2-yl)phenol] | 6.22 | 6.71 | 
COCOc1cncc(-c2nc(N3CCOCC3)c3ncn(C4CCN(C(=O)OC(C)(C)C)CC4)c3n2)c1 [Compound 58, tert-butyl-4-{2-[5-(methoxymethoxy)pyridin-3-yl]-6-morpholin-4-yl-9H-purin-9-yl}piperidine-1-carboxylate] | < 5.40 | 5.68 | 
Cc1ccc(CN2CCC(n3cnc4c(N5CCOCC5)nc(-c5cncc(O)c5)nc43)CC2)s1 [Compound 37, 5-(9-{1-[(5-methyl-2-thienyl)methyl]piperidin-4-yl}-6-morpholin-4-yl-9H-purin-2-yl)pyridin-3-ol] | 6.85 | 7.59 | 
O=Cc1cncc(-c2nc(N3CCOCC3)c3ncn(C4CCN(Cc5ccccc5)CC4)c3n2)c1 [Compound 34, 5-[9-(1-benzylpiperidin-4-yl)-6-morpholin-4-yl-9H-purin-2-yl]nicotinaldehyde] | 6.77 | 7.11 | 
OCc1cccc(-c2nc(N3CCOCC3)c3ncn(C4CCNCC4)c3n2)c1 [Compound 25, [3-(6-Morpholin-4-yl-9-piperidin-4-yl-9H-purin-2-yl)-phenyl]-methanol] | 5.14 | 7.24 | 
C=CC(=O)n1cnc2c(N3CCOCC3)nc(-c3cccc(O)c3)nc21 [Compound 91, 1-(2-(3-hydroxyphenyl)-6-morpholino-9H-purin-9-yl)prop-2-en-1-one] | 7.14 | 7.37 | 
Oc1ccc(-c2nc(N3CCOCC3)c3nc[nH]c3n2)cc1 [Compound 4, 4-(6-morpholin-4-yl-9H-purin-2-yl)phenol] | 6.35 | 5.57 | 
OCc1cccc(-c2nc(N3CCOCC3)c3ncn(C4CCN(Cc5ccc(F)nc5)CC4)c3n2)c1 [Compound 61, [3-(9-{1-[(6-fluoropyridin-3-yl)methyl]piperidin-4-yl}-6-morpholin-4-yl-9H-purin-2-yl)phenyl]methanol] | 6.15 | 7.33 | 
c1cc2cc(-c3nc(N4CCOCC4)c4nc[nH]c4n3)ccc2[nH]1 [Compound 6, 2-(1H-indol-5-yl)-6-morpholin-4-yl-9H-purine] | 6.74 | 5.56 | 

More lines, now with the values ahead:

pIC50 (human TOR) | pIC50 (PI3 Kinase) | melting point [°C] | Compound
6.66 | 7.37 | 238 to 240 | Nc1ncc(-c2nc(N3CCOCC3)c3ncn(C4CCN(Cc5ccccc5)CC4)c3n2)cn1 [Compound 31, 5-[9-(1-benzylpiperidin-4-yl)-6-morpholin-4-yl-9H-purin-2-yl]pyrimidin-2-amine]
5.81 | 7.11 |  | OCc1cccc(-c2nc(N3CCOCC3)c3ncn(C4CCN(Cc5ccc(F)cc5Cl)CC4)c3n2)c1 [Compound 69, (3-{9-[1-(2-chloro-4-fluorobenzyl)piperidin-4-yl]-6-morpholin-4-yl-9H-purin-2-yl}phenyl)methanol]
6.19 | 7.35 |  | OCc1cccc(-c2nc(N3CCOCC3)c3ncn(C4CCN(Cc5ccc(Cl)nc5)CC4)c3n2)c1 [Compound 63, [3-(9-{1-[(6-chloropyridin-3-yl)methyl]piperidin-4-yl}-6-morpholin-4-yl-9H-purin-2-yl)phenyl]methanol]
5.05 | 5.91 |  | c1nc2c(N3CCOCC3)nc(-c3ccc4c(c3)OCO4)nc2[nH]1 [Compound 7, 2-(1,3-benzodioxol-5-yl)-6-morpholin-4-yl-9H-purine]
6.26 | 7.06 |  | Oc1cncc(-c2nc(N3CCOCC3)c3ncn(C4CCN(Cc5ccccc5)CC4)c3n2)c1 [Compound 87, 5-[9-(1-benzylpiperidin-4-yl)-6-morpholin-4-yl-9H-purin-2-yl]pyridin-3-ol]
6.03 | 7.51 |  | Oc1cncc(-c2nc(N3CCOCC3)c3ncn(C4CCN(Cc5ccc[nH]5)CC4)c3n2)c1 [Compound 39, 5-{6-morpholin-4-yl-9-[1-(1H-pyrrol-2-ylmethyl)piperidin-4-yl]-9H-purin-2-yl}pyridin-3-ol]
4.89 | 7.04 |  | OCc1cccc(-c2nc(N3CCOCC3)c3ncn(CCN4CCCCC4)c3n2)c1 [Compound 86, {3-[6-morpholin-4-yl-9-(2-piperidin-1-ylethyl)-9H-purin-2-yl]phenyl}methanol]
5.85 | 7.02 |  | CC(C)(C)OC(=O)N1CCC(n2cnc3c(N4CCOCC4)nc(-c4cccc(CO)c4)nc32)CC1 [Compound 59, tert-butyl 4-{2-[3-(hydroxymethyl)phenyl]-6-morpholin-4-yl-9H-purin-9-yl}piperidine-1-carboxylate]
5.60 | 7.43 |  | OCc1cccc(-c2nc(N3CCOCC3)c3ncn(C4CCN(Cc5ccc[nH]5)CC4)c3n2)c1 [Compound 68, (3-{6-morpholin-4-yl-9-[1-(1H-pyrrol-2-ylmethyl)piperidin-4-yl]-9H-purin-2-yl}phenyl)methanol]
6.70 | 7.43 |  | Oc1cccc(-c2nc(N3CCOCC3)c3ncn(C4CCN(Cc5ccc(Cl)nc5)CC4)c3n2)c1 [Compound 78, 3-(9-{1-[(6-chloropyridin-3-yl)methyl]piperidin-4-yl}-6-morpholin-4-yl-9H-purin-2-yl)phenol]
5.92 | 7.38 |  | OCc1cccc(-c2nc(N3CCOCC3)c3ncn(C4CCN(Cc5ccc(F)c(F)c5)CC4)c3n2)c1 [Compound 62, (3-{9-[1-(3,4-difluorobenzyl)piperidin-4-yl]-6-morpholin-4-yl-9H-purin-2-yl}phenyl)methanol]
6.01 | 7.85 |  | Oc1cncc(-c2nc(N3CCOCC3)c3ncn(C4CCNCC4)c3n2)c1 [Compound 36, 5-(6-morpholin-4-yl-9-piperidin-4-yl-9H-purin-2-yl)pyridin-3-ol]
